The nature of one assay: cells. The class given is functional, cell-based. As to conditions: HEK-CNG.
The next assay concerns the target T1, Galanin receptor type 3 (Homo sapiens, UniProt O60755).
T1 sequence (O60755 whole entry): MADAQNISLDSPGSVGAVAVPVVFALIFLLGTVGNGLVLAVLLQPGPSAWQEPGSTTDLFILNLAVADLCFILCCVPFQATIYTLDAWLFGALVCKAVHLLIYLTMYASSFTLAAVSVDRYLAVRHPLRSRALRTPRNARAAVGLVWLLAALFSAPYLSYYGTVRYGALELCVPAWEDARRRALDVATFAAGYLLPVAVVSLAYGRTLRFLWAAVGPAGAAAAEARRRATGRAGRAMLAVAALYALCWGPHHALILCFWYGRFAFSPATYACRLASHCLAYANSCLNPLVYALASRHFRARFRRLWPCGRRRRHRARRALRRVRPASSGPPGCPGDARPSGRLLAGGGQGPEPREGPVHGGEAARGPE
Nature of the assay: Fluorescence-based cell-based primary high throughput dose response assay to identify antagonists of the Galanin Receptor 3 (GalR3). The class given is functional.

A short description of assay [1]: A549 cell cytotoxicity, dose response, cytotoxicity control, plate reader, cherry-pick, antagonist series (AID 743412). The format is functional, cell-based.
The target of assay [2] is Disintegrin and metalloproteinase domain-containing protein 17 (Homo sapiens, UniProt P78536). The assay can be described thus: ADAM17 protease inhibitors, dose response, counter-screen for ADAM10 exosite inhibitor project, biochemical, quenched FRET substrate (AID 743253). (In general: The purpose of a counterscreen is to sort out artefacts and off-target activity.)
Sequence of Disintegrin and metalloproteinase domain-containing protein 17 (P78536 whole entry, the tested form may be a part): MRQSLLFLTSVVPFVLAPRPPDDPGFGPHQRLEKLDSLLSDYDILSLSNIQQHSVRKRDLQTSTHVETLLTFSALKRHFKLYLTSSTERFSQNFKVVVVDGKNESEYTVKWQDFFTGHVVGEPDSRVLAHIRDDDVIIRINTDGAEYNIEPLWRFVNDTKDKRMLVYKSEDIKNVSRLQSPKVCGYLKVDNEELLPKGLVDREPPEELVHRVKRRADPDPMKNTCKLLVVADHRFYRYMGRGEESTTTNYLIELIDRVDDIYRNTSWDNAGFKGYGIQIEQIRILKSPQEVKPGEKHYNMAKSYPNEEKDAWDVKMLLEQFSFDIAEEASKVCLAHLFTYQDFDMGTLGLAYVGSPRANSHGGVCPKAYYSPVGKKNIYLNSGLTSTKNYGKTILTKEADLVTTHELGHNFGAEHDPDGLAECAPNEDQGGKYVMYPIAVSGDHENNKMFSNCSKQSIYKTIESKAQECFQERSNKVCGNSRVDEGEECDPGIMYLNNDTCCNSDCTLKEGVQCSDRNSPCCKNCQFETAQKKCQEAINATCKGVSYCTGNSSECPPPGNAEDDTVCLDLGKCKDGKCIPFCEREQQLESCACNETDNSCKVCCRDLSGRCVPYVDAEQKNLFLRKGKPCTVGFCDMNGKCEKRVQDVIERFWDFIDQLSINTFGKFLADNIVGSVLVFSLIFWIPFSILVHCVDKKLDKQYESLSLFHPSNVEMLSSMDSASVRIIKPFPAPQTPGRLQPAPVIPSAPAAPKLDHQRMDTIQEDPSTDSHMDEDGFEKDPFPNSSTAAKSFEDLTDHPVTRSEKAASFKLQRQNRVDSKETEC
The nature of assay [3]: ADAM10 inhibitors, peptide cleavage, dose response, biochemical, QFRET (AID 743254).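 Note: ADAM10 enzyme with the DM2 quenched FRET peptide as substrate; EDANS fluorescence gain as the protease cuts the substrate; inhibitor potency against ADAM10 proteolytic activity.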
Assay [4] is described as follows: HepG2 cell cytotoxicity, dose response, cytotoxicity control, plate reader, cherry-pick, antagonist series (AID 743416). The class given is functional, cell-based.
Assay [5] is described as follows: LGR2 antagonists, dose response, cell-based, HEK293, CRE-luciferase reporter, cherry pick, set 2 (AID 743343).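 Note: transfected cells were stimulated with diluted bursicon conditioned medium after compound addition.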 The class given is functional. (A reporter such as luciferase makes a cellular process visible.)
Assay [6] deals with T2, Oxysterols receptor LXR-beta (Homo sapiens, UniProt P55055).
T2 sequence (P55055 whole entry): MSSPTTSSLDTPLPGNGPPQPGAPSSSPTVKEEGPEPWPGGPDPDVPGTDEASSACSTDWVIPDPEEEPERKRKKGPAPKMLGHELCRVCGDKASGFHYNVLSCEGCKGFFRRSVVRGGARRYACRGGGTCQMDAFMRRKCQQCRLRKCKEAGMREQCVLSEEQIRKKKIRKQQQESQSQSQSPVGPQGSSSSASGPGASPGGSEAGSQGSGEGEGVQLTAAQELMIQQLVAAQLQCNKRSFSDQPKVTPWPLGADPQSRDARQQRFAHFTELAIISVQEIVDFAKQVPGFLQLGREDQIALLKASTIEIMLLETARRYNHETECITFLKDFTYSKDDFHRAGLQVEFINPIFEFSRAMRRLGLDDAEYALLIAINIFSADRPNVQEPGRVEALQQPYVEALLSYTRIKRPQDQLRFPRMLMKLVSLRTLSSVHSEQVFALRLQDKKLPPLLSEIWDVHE
Nature of the assay: LXR agonists, Gal4 luciferase reporter, dose response, counter-screen for ssDAF-12 agonist project, cell-based, luminescence, HEK293, S. stercoralis campaign (AID 720737). The class given is functional. As to conditions: read-out: IC50 (the source's name).

Assay [7] in a line: Luminescence-based cell-based high throughput dose response assay to identify activators of the DAF-12 from the parasite S. stercoralis (ssDAF-12). The class given is functional.
Assay [8] can be described thus: HEp-2 cell cytotoxicity, dose response, cytotoxicity control for RSV inhibitor project, HTS (AID 2410). The format is functional. The note with it: human respiratory syncytial virus.
Assay [9] deals with T3, DNA repair protein RAD52 homolog (Homo sapiens, UniProt P43351).
T3 sequence (P43351 whole entry): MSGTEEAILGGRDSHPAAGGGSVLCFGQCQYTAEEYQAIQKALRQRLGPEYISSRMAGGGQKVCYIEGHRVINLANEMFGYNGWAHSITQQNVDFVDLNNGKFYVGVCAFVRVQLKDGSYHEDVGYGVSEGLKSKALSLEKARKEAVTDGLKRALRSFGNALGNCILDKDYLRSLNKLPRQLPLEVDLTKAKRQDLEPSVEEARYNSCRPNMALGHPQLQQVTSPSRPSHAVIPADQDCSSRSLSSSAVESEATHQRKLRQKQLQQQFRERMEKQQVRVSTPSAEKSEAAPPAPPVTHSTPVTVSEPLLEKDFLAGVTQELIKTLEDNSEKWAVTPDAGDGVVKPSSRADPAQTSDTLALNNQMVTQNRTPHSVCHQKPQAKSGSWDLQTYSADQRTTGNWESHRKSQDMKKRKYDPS
The format is functional, biochemical.

A short description of assay [10]: inhibitors of Vif binding to APOBEC3G peptide, primary screen, biochemical, TR-FRET, GST-Vif 1-94, biotin-A3G peptide, dose response retest (AID 1117319).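 Note: TR-FRET signal of purified GST-Vif binding a biotinylated A3G peptide; inhibitors lower the FRET signal by blocking Vif and A3G binding.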 The class given is functional. (In general: Time-resolved FRET reads energy transfer from a long-lived donor to a nearby acceptor.)
In assay [11] the target is Induced myeloid leukemia cell differentiation protein Mcl-1 (Homo sapiens, UniProt Q07820). The class given is functional.
Sequence of Induced myeloid leukemia cell differentiation protein Mcl-1 (Q07820 whole entry): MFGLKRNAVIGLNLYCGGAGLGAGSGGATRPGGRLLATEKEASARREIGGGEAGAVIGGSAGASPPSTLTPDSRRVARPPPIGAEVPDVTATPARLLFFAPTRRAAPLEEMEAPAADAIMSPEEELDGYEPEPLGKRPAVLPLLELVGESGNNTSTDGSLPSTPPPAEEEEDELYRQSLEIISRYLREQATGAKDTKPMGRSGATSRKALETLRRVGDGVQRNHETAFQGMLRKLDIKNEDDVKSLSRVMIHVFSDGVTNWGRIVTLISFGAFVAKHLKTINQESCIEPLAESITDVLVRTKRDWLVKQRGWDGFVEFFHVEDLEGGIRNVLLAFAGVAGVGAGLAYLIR
The target in assay [12] is T4, Voltage-gated N-type calcium channel alpha-1B subunit/Amyloid beta A4 precursor protein-binding family A member 1 (Homo sapiens, UniProt Q00975+Q02410). The class given is protein assay.
T4 sequence (Q00975 whole entry): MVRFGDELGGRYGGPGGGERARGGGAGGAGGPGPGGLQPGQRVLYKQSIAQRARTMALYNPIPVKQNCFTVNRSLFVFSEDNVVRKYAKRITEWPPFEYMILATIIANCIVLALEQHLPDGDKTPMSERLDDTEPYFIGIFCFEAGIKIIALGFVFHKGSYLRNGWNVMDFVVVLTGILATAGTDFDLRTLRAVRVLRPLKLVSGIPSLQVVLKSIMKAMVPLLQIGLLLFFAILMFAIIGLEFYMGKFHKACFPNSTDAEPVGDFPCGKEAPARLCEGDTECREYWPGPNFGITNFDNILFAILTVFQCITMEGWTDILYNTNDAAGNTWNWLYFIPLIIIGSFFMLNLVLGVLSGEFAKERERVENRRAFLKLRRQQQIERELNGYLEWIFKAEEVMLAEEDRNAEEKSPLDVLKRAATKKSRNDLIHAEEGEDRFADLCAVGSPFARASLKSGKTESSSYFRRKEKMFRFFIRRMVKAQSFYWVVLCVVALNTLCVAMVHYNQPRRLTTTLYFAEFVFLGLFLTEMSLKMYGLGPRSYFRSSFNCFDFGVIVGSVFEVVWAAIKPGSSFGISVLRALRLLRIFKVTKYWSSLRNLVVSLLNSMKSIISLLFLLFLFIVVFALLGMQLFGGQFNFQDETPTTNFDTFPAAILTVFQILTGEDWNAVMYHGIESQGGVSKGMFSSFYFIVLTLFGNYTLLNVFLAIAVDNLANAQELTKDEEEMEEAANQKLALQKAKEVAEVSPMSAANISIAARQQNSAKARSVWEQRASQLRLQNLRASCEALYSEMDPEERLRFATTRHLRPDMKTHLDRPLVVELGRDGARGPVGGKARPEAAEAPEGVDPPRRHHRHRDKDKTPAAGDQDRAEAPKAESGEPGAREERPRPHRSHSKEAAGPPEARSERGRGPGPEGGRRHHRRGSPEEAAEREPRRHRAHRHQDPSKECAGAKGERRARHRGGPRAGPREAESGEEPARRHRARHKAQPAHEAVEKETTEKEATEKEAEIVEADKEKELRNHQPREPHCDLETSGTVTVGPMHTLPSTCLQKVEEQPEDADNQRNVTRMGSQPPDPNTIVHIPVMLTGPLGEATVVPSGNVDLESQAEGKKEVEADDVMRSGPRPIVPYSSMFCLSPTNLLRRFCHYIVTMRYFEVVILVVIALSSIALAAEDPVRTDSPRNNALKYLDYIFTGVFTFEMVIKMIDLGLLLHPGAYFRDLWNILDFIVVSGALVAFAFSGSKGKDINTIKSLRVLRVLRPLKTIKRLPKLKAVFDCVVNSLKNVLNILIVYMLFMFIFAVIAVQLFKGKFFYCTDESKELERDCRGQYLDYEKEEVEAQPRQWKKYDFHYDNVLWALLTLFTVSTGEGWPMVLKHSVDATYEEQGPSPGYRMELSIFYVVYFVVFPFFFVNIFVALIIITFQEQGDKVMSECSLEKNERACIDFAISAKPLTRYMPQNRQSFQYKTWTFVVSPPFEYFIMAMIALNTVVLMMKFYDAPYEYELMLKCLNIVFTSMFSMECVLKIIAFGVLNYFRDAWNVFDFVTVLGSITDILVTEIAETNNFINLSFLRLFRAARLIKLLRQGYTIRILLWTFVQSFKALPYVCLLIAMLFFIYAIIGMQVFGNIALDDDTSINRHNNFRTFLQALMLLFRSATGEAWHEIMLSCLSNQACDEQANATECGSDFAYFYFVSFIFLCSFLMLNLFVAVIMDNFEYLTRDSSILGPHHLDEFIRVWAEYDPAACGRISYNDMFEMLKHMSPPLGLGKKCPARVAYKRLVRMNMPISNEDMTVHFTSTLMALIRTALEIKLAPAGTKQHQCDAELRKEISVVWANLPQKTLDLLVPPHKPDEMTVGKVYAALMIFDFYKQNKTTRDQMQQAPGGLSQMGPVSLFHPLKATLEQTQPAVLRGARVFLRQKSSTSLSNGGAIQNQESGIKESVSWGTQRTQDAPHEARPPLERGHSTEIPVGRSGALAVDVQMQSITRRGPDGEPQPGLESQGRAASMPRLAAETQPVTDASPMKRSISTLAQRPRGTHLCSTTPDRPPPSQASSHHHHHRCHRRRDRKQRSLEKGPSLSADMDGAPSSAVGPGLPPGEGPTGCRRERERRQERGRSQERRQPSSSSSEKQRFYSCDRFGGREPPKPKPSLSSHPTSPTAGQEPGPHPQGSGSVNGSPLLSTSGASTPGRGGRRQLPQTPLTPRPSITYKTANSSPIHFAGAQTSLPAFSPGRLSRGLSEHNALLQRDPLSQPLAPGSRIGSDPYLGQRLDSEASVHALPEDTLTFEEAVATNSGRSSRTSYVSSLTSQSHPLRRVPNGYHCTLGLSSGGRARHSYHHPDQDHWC
T4 sequence (Q02410 whole entry): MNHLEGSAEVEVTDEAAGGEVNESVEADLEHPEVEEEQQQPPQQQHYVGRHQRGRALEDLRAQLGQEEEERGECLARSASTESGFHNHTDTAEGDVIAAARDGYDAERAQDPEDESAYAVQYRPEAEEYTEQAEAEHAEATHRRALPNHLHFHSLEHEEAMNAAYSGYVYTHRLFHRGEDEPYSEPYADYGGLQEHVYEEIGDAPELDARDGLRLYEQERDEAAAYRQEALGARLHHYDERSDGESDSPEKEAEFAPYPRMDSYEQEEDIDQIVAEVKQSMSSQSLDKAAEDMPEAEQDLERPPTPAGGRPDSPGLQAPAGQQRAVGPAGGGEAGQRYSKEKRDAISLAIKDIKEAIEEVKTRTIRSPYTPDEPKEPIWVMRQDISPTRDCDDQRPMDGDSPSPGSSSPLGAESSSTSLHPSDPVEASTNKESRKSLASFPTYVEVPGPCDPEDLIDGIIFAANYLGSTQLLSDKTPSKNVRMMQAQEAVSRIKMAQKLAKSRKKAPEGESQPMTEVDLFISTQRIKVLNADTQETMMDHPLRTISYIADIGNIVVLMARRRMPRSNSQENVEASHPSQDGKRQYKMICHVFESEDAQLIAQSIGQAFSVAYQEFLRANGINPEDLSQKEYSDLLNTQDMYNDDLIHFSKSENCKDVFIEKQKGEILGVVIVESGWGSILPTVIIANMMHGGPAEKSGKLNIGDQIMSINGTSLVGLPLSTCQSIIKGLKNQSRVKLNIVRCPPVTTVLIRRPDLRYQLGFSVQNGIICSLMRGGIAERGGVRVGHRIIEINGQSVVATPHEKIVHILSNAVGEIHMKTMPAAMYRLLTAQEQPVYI
Assay [13] deals with T4, Voltage-gated N-type calcium channel alpha-1B subunit/Amyloid beta A4 precursor protein-binding family A member 1. The format is protein assay. This is another data set of the same source.
The target of assay [14] is FAD-linked sulfhydryl oxidase ALR (Homo sapiens, UniProt P55789). Nature of the assay: inhibitors of human ALR sulfhydryl oxidase, dose response, biochemical, H2O2 detection, luminescence, cherry-pick (AID 493248).
Sequence of FAD-linked sulfhydryl oxidase ALR (P55789 whole entry): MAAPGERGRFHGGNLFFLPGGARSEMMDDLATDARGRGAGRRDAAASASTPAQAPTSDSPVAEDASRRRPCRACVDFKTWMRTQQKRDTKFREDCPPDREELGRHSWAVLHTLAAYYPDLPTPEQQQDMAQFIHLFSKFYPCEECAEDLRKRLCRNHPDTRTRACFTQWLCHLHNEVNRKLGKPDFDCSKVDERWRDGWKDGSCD
A further assay has as its system Streptococcus. The assay can be described thus: Group A Streptococcus viability loss, dose response, counter-screen for streptokinase expression inhibitor project, luminescence, BacTiterGlo (AID 1915).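 Note: potency for reduction of bacterial viability or growth.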 The class given is functional, organism-based.
The test system of another assay is H9c2. Nature of the assay: cells. The class given is functional, cell-based. The note with it: Rattus norvegicus, H9c2, Myocardium.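 Note: confirmatory concentration-response retest of ultra-high-throughput screening hits for modulation of myocardial damage; cell death induced by hydrogen peroxide oxidative stress; compound pretreatment for 60 min then peroxide exposure for 2 h; potency is for protecting the cells against peroxide damage rather than for killing them.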
In assay [15] the target is T5, Rac GTPase-activating protein 1 (Homo sapiens, UniProt Q9H0H5).
T5 sequence (Q9H0H5 whole entry): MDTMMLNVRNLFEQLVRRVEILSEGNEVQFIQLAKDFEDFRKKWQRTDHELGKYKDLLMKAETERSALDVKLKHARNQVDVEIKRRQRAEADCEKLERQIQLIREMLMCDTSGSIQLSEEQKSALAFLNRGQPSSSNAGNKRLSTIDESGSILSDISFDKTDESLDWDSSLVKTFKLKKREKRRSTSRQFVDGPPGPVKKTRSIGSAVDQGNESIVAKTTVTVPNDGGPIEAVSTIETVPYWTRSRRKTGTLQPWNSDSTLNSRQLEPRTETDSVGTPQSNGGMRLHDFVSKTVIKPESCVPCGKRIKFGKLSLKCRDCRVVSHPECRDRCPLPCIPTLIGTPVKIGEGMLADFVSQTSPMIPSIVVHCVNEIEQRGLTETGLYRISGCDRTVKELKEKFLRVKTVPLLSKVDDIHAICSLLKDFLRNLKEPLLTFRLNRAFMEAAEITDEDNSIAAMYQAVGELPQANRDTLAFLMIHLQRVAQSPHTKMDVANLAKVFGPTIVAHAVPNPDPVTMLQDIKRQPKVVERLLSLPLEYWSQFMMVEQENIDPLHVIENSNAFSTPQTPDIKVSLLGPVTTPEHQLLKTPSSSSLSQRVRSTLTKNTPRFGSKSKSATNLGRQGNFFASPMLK
Nature of the assay: MgcRacGAP GTPase-activating activity inhibitors, confirmation, biochemical, ADP Hunter fluorescence, primary and confirmatory (AID 624330). The class given is functional.

Assay [16] relates to Streptococcus sp. 'group A'. The assay can be described thus: growth inhibition of control SK(-) GAS strain, dose response, counter-screen for streptokinase expression inhibitor project, luminescence, kanamycin, BacTiterGlo, confirmation (AID 1900). The class given is functional, organism-based.
Assay [17] in a line: HeLa cell cytotoxicity, dose response, cytotoxicity control for MgcRacGAP inhibitor project (AID 624300). The class given is functional.
In the next assay the target is T6, Streptokinase A (Streptococcus pyogenes serotype M1, UniProt P10520).
T6 sequence (P10520 whole entry): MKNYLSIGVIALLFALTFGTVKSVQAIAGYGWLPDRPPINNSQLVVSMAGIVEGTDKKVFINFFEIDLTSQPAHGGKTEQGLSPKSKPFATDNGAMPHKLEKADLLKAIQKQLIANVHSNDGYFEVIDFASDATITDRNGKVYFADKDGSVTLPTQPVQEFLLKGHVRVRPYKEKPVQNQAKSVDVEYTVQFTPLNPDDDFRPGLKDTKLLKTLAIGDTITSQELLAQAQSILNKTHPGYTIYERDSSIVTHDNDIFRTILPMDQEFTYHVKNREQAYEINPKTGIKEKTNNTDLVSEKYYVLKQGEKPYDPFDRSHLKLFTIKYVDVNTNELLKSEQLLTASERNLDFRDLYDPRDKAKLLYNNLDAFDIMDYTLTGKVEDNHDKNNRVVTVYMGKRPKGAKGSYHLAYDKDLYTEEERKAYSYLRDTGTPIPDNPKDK
Nature of the assay: S. pyogenes streptokinase expression inhibitors, potency, dose response, plasminogen activation absorbance, OD405 (AID 1914).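 Note: secreted streptokinase activity via plasminogen activation per viability signal from cell pellet.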 The class given is functional, Streptococcus pyogenes M1 GAS.

Active and inactive are the calls of the source.

A word on the IC50: it is the concentration that inhibits the measured activity by half. As for `COCCn1c(C)cc(C(=O)COc2nc3ccccc3nc2C)c1C`, the EC50 in “cells” is > 29.9 µM (inactive). In addition, the IC50 at Galanin receptor type 3 is 3.67 µM (active).
One may read the AC50 as the concentration giving half of the maximal activity seen. Consider `O=C(CSc1nc2ccccc2[nH]1)Nc1nc(-c2cccc(Br)c2)cs1`, for which the AC50 in assay [1] was 24.2 µM (active); in assay [4] it was 38.4 µM (active); in assay [5], 35.4 µM (active). Also, the IC50 in assay [2] and in [3] was > 69.5 µM (inactive) throughout.
For the compound `COc1ccc(C2CC(c3cccs3)=NN2C(=O)CN2CCCCC2)cc1` (configuration not stated), the EC50 in assay [6] was > 67.5 µM (inactive). Also, in assay [7], the IC50 was > 67.5 µM (inactive).
For orientation: CC50 means the concentration that lowers cell viability or growth by half. For `O=C(c1cccs1)N1N=C(c2ccccc2)CC1c1ccc(O)cc1` (configuration not stated), the IC50 in assay [2] and in assay [3] was > 69.5 µM (inactive) in each case. In addition, the CC50 in assay [8] is 24.2 µM (active).
Regarding `CCN1CCc2nc(N)sc2C1`, the AC50 in assay [9] was 23.4 µM (active).
In the case of `O=[N+]([O-])c1ccc(-c2c[nH]c(S)n2)cc1`, the IC50 in [10] is > 100 µM (active); in assay [11], 1.38 µM (active); in assay [12] it was 11.3 µM (active); in [13], > 50 µM (inactive). Further, the AC50 in [14] was 1.99 µM (active).
Turning to `COc1ccc(NC(=O)c2ccc(-c3ccccc3)cc2)cc1NS(=O)(=O)c1ccc(F)cc1`, the IC50 in assay [2] and in assay [3] was > 69.5 µM (inactive) in each case.
On to `COc1ccc(Cl)cc1N(CC(=O)Nc1ccc2c(c1)OCO2)S(C)(=O)=O`, for which, in [10], the IC50 was > 100 µM (active).
As to `COc1ccc(-n2c(/C=C/c3ccc(O)c(OC)c3)nc3ccccc3c2=O)cc1`, the EC50 in the assay on Streptococcus was 26.5 µM (active); in assay [16], 22 µM (active); at Streptokinase A, > 150 µM (not active). In addition, the IC50 with H9c2 was > 79 µM (inactive); in assay [15], 52.4 µM (active). In assay [17], the CC50 was 71 µM (active).

Source of the values: ChEMBL document CHEMBL1201862, “PubChem BioAssay data set” (2004).
